Experimental findings from patent publication US20250051355A1, “COMPOUNDS, COMPOSITIONS, AND METHODS” (ACONCAGUA BIO, INC., priority 2023, published 2025) are described below.

Assay [1] deals with human calcitonin receptor (CTR) and RAMP3 (AMY3) (Homo sapiens, UniProt O60896+P30988). As to the kind of experiment: Amylin Receptor cAMP Assay II. It counts as cell-based. The following applies: COS-7/AMY3 cells, cAMP dynamic 2 kit, read-out: Amylin Receptor cAMP Stimulation Activity: EC50. A digest of the protocol:
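COS-7 cells stably co-expressing human CTR and RAMP3 (AMY3) were treated with 4-fold serially diluted compounds at 2000 cells/well in HBSS with 20 mM HEPES, 0.5 mM IBMX and 0.1% casein for 30 min at 37 °C. cAMP was measured by HTRF (cAMP-d2 plus anti-cAMP cryptate, 1 h at RT) with reads at 665/615 nm.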

Assay [2] deals with T1, human calcitonin receptor (CTR) (Homo sapiens, UniProt P30988).
T1 construct: expressed in transfected cells; host or cells: COS-7 (COS7-human CTR Clone #2)
T1 sequence (P30988 25-474): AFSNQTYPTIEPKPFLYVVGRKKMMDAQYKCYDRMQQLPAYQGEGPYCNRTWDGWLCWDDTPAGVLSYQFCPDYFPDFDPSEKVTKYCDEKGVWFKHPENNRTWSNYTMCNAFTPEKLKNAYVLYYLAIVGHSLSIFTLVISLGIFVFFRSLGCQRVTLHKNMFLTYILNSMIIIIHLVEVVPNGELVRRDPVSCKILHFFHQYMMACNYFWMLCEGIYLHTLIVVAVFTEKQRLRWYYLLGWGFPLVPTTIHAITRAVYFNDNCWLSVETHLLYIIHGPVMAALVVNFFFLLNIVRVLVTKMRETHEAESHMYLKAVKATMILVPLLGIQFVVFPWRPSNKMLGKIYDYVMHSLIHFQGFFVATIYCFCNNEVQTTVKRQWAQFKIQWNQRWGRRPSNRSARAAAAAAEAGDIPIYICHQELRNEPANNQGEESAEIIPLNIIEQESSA
As to the kind of experiment: Calcitonin receptor (CTR) cAMP Assay. The class given is cell-based. The following applies: COS7-human CTR Clone #2 cells, cAMP dynamic 2 kit; read-out: Calcitonin Receptor cAMP Stimulation Activity: EC50. A digest of the protocol: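 COS-7 cells stably expressing human CTR (2000 cells/well) treated with 4-fold serially diluted compounds in HBSS/20 mM HEPES/0.5 mM IBMX/0.1% casein, 30 min at 37° C. cAMP quantified by HTRF (cAMP-d2 plus anti-cAMP cryptate, 1 h RT), fluorescence read at 665 and 615 nm.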

Each structure is given as a SMILES string.

Chain of human calcitonin receptor (CTR) and RAMP3 (AMY3) (O60896 24-148, one chain of several): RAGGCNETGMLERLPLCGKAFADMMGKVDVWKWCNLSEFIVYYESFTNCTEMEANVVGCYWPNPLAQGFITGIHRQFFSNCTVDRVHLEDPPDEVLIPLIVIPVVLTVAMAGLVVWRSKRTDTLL

Consider `Cc1nnc(-c2c(CCC3C4COCC34)nc3c(c2-c2cc4ccnc(N[C@@H]5CCc6ncccc65)c4s2)S(=O)(=O)CC3C(C)C)o1` (stereo partly drawn) [Compound 115, N—(R)-4-aza-1-indanyl(2-[3-isopropyl-6-(5-methyl-1,3,4-oxadiazol-2-yl)-5-(2-(3-oxabicyclo[3.1.0]hex-6-yl)ethyl}-1,1-dioxo-1λ^6-thia-4-aza-7-indanyl]-1-thia-6-aza-7-indenyl}amine], for which the EC50 (as a rule, the concentration at which the effect is half-maximal) is 305 nM in assay [1] and 14.5 nM in assay [2].
With `Cc1nnc(-c2c(CCC34CCC(CC3)OC4)nc3c(c2-c2cc4ccnc(N[C@@H]5CCc6ncccc65)c4s2)S(=O)(=O)CC3C(C)C)o1` (stereo partly drawn) [Compound 116, N—(R)-4-aza-1-indanyl(2-[3-isopropyl-6-(5-methyl-1,3,4-oxadiazol-2-yl)-5-(2-(2-oxabicyclo[2.2.2]oct-4-yl)ethyl}-1,1-dioxo-1λ^6-thia-4-aza-7-indanyl]-1-thia-6-aza-7-indenyl}amine], the values for the EC50 in assay [1] and in assay [2] were 216 nM and 5.02 nM, respectively.
For the molecule `CC(C)C1CS(=O)(=O)c2c1nc(CCC1CCOCC1)c(-c1nnc(CN(C)C)o1)c2-c1cc2ccnc(N[C@@H]3CCc4ncccc43)c2s1` (stereo partly drawn) [Compound 117, 7-(7-[(R)-4-aza-1-indanylamino]-1-thia-6-aza-2-indenyl}-6-(5-[(dimethylamino)methyl]-1,3,4-oxadiazol-2-yl}-3-isopropyl-5-[2-(tetrahydro-2H-pyran-4-yl)ethyl]-1λ^8-thia-4-aza-1,1-indandione], the EC50 amounted to 257 nM in assay [1] and 9.93 nM in assay [2].
For `Cc1ccnc(-c2c(CCC3CCOCC3)nc3c(c2-c2cc4ccnc(N[C@@H]5CCc6ncccc65)c4s2)S(=O)(=O)CC3C(C)C)c1` (stereo partly drawn) [Compound 118, N—(R)-4-aza-1-indanyl(2-(3-isopropyl-6-(4-methyl-2-pyridyl)-1,1-dioxo-5-[2-(tetrahydro-2H-pyran-4-yl)ethyl]-11′-thia-4-aza-7-indanyl}-1-thia-6-aza-7-indenyl)amine], in that order: 449 nM and 72.8 nM.
For `CC(C)C1CS(=O)(=O)c2c1nc(CCC1CCOCC1)c(-c1nnc[nH]1)c2-c1cc2ccnc(N[C@@H]3CCc4ncccc43)c2s1` (stereo partly drawn) [Compound 119, 7-(7-(((R)-6,7-dihydro-5H-cyclopenta[b]pyridin-5-yl)amino)thieno[2,3-c]pyridin-2-yl)-3-isopropyl-5-(2-(tetrahydro-2H-pyran-4-yl)ethyl)-6-(4H-1,2,4-triazol-3-yl)-2,3-dihydrothieno[3,2-b]pyridine 1,1-dioxide], in that order: 68.3 nM and 11.6 nM.
The matching figures for `CC(C)C1CS(=O)(=O)c2c1nc(CCC1CCOCC1)c(-c1nnc(N)o1)c2-c1cc2ccnc(N[C@@H]3CCc4ncccc43)c2s1` (stereo partly drawn) [Compound 120, 7-{7-[(R)-4-aza-1-indanylamino]-1-thia-6-aza-2-indenyl}-6-(5-amino-1,3,4-oxadiazol-2-yl)-3-isopropyl-5-[2-(tetrahydro-2H-pyran-4-yl)ethyl]-1λ^6-thia-4-aza-1,1-indandione]: 55.3 nM and 10.2 nM.
Turning to `COc1noc(-c2c(CCC3CCOCC3)nc3c(c2-c2cc4ccnc(N[C@@H]5CCc6ncccc65)c4s2)S(=O)(=O)CC3C(C)C)n1` (stereo partly drawn) [Compound 121, N—(R)-4-aza-1-indanyl(2-(3-isopropyl-6-(3-methoxy-1,2,4-oxadiazol-5-yl)-1,1-dioxo-5-[2-(tetrahydro-2H-pyran-4-yl)ethyl]-1λ^6-thia-4-aza-7-indanyl}-1-thia-6-aza-7-indenyl)amine], the EC50 in assay [1] turned out to be 272 nM; in assay [2], 49.2 nM.
Regarding `Cc1nnc(-c2c(CCC3CCOCC3)nc3c(c2-c2ccn4c(Cc5ccc(F)c(F)c5)cnc4c2)S(=O)(=O)CC3C(C)C)o1` (stereo not shown) [Compound 122, 7-(3-[(3,4-difluorophenyl)methyl]-1,3a-diaza-6-indenyl}-3-isopropyl-6-(5-methyl-1,3,4-oxadiazol-2-yl)-5-[2-(tetrahydro-2H-pyran-4-yl)ethyl]-1λ^6-thia-4-aza-1,1-indandione], the EC50 in assay [1] is 1540 nM; in assay [2] it was 49.2 nM.
For `COc1nnc(-c2c(CCC3CCOCC3)nc3c(c2-c2cc4ccnc(N[C@@H]5CCc6ncccc65)c4s2)S(=O)(=O)CC3C(C)C)o1` (stereo partly drawn) [Compound 123, N—(R)-4-aza-1-indanyl(2-(3-isopropyl-6-(5-methoxy-1,3,4-oxadiazol-2-yl)-1,1-dioxo-5-[2-(tetrahydro-2H-pyran-4-yl)ethyl]-1λ^6-thia-4-aza-7-indanyl}-1-thia-6-aza-7-indenyl)amine], in that order: 4380 nM and 135 nM.
Take `Cc1nnc(-c2c(CCC3CCOCC3)nc3c(c2-c2cnc4c(ccn4Cc4ccc(C#N)cn4)c2)C(=O)N2CCC[C@@H]32)o1` [Compound 124, 6-[(5-((2S)-10-(5-methyl-1,3,4-oxadiazol-2-yl)-7-oxo-11-[2-(tetrahydro-2H-pyran-4-yl)ethyl]-6,12-diazatricyclo[6.4.0.0,^1I]dodeca-1(12),8,10-trien-9-yl}-1H-1,7-diazainden-1-yl)methyl]nicotinonitrile]: the EC50 amounted to 2700 nM in assay [1] and 216 nM in assay [2].
The matching figures for `Cc1nnc(-c2c(CCC3CCOCC3)nc3c(c2-c2ccc4c(c2)oc(=O)n4Cc2ccc(C#N)cn2)C(=O)N2CCC[C@@H]32)o1` [Compound 125, 6-[(6-((2S)-10-(5-methyl-1,3,4-oxadiazol-2-yl)-7-oxo-11-[2-(tetrahydro-2H-pyran-4-yl)ethyl]-6,12-diazatricyclo[6.4.0.0^2,6,]dodeca-1(12),8,10-trien-9-yl}-2-oxo-1,3-benzoxazol-3-yl)methyl]nicotinonitrile]: 174 nM and 6.63 nM.
For `Cc1nnc(-c2c(CCC3CCOCC3)nc3c(c2-c2cnc4c(ccn4Cc4ccc(C#N)c(F)c4)c2)S(=O)(=O)N2CCC[C@@H]32)o1` [Compound 126, 4-[(5-{(2S)-10-(5-methyl-1,3,4-oxadiazol-2-yl)-7,7-dioxo-11-[2-(tetrahydro-2H-pyran-4-yl)ethyl]-7λ^6-thia-6,12-diazatricyclo[6.4.0.0^2,6]dodeca-1(12),8,10-trien-9-yl}-1H-1,7-diazainden-1-yl)methyl]-2-fluorobenzonitrile], in that order: 128 nM and 11.7 nM.
The matching figures for `Cc1nnc(-c2c(CCC3CCOCC3)nc3c(c2-c2ccc4c(c2)oc(=O)n4Cc2ccc(C#N)cn2)S(=O)(=O)N2CCC[C@@H]32)o1` [Compound 127, 6-[(6-{(2S)-10-(5-methyl-1,3,4-oxadiazol-2-yl)-7,7-dioxo-11-[2-(tetrahydro-2H-pyran-4-yl)ethyl]-7λ^6-thia-6,12-diazatricyclo[6.4.0.0^2,6]dodeca-1(12),8,10-trien-9-yl}-2-oxo-1,3-benzoxazolidin-3-yl)methyl]nicotinonitrile]: 209 nM and 3.86 nM.
As to `Cc1nnc(-c2c(CCC3CCOCC3)nc3c(c2-c2cnc4c(ccn4Cc4ccc(C#N)cn4)c2)S(=O)(=O)CC3C(C)C)o1` (stereo not shown) [Compound 128, 6-[(5-(3-isopropyl-6-(5-methyl-1,3,4-oxadiazol-2-yl)-1,1-dioxo-5-[2-(tetrahydro-2H-pyran-4-yl)ethyl]-1-thia-4-aza-7-indanyl}-1H-1,7-diazainden-1-yl)methyl]nicotinonitrile], the EC50 was 1540 nM in assay [1] and 120 nM in assay [2].
